According to patent US7544710B2 (Les Laboratoires Servier, priority 2002, dated 2009):

System: animals
Experiment: In vivo study with a different strontium salt (strontium chloride)

[Cl-].[Cl-].[Sr+2] [strontium chloride]
superficial haemorrhagic lesions in the animals treated: very rapidly caused superficial haemorrhagic lesions
